Experimental data: patent US12172983B2, “EGFR inhibitors” (Blueprint Medicines Corporation, priority 2019, dated 2024)
pIC50: −log10 of the molar value.

Legend:
[1] = test system: phosphorylation of EGFR (Tyr1068) in NCI-H1975 cell line that harbors the EGFR L858R T790M mutations; assay: NCI-H1975 pEGFR AlphaLISA assay; assay type: cell-based; conditions: Homo sapiens, NCI-H1975, inhibition of phosphorylation of mutant EGFR in NCI-H1975 cells; 4-5 hours incubation; read-out: Ext pEGFR H1975
Protocol: Inhibitory effects of the compounds of the disclosure were evaluated in cellular assays that measure level of intracellular phosphorylation of EGFR in NCI-H1975 cell line that harbors the EGFR L858R T790M mutations (ATCC, CRL-5908) using AlphaLISA sureFire ultra p-EGFR (Tyr1068) assay kit (PerkinElmer, ALSU-PEGFR-A50K). The NCI-H1975 cells were seeded at 12.5K/well in 22 μL into 384 well opti plate (PerkinElmer, 6007299) and adhering overnight at 37 C/5% CO2. On the next day, the test compounds and DMSO control were added into H1975 cell plate followed by incubation at 37 C/5% CO2 for 4-5 hours. The cells were then spin down in the 384-well plate and lysed with 10 μL of 1×AlphaLISA lysis buffer followed by shaking at 600 rpm for 10 minutes at room temperature. After that, 5 μL of an acceptor bead mix was added to each well followed by incubation at room temperature for 1.5-2 h in dark. Then 5 μL of a donor bead mix was added to each well followed by overnight incubation at room temperature in dark. On the next day, the plate was read at a compatible plate reader to obtain pEGFR signal. Percent of pEGFR inhibition was plotted against log concentration of compounds to generate IC50 values.

[2] = target: T1, EGFR (L858R T790M C797S) (Homo sapiens, UniProt P00533, C797S/L858R/T790M); assay: Biochemical EGFR inhibition assay (Caliper mobility shift), EGFR LRTMCS mutant; conditions: inhibitory activity against EGFR LRTMCS mutant; apparent IC50; read-out: Ext Enz LRTMCS
T1 construct: purchased SignalChem E10-122VG
T1 sequence (P00533 25-1210 T790M/C797S/L858R): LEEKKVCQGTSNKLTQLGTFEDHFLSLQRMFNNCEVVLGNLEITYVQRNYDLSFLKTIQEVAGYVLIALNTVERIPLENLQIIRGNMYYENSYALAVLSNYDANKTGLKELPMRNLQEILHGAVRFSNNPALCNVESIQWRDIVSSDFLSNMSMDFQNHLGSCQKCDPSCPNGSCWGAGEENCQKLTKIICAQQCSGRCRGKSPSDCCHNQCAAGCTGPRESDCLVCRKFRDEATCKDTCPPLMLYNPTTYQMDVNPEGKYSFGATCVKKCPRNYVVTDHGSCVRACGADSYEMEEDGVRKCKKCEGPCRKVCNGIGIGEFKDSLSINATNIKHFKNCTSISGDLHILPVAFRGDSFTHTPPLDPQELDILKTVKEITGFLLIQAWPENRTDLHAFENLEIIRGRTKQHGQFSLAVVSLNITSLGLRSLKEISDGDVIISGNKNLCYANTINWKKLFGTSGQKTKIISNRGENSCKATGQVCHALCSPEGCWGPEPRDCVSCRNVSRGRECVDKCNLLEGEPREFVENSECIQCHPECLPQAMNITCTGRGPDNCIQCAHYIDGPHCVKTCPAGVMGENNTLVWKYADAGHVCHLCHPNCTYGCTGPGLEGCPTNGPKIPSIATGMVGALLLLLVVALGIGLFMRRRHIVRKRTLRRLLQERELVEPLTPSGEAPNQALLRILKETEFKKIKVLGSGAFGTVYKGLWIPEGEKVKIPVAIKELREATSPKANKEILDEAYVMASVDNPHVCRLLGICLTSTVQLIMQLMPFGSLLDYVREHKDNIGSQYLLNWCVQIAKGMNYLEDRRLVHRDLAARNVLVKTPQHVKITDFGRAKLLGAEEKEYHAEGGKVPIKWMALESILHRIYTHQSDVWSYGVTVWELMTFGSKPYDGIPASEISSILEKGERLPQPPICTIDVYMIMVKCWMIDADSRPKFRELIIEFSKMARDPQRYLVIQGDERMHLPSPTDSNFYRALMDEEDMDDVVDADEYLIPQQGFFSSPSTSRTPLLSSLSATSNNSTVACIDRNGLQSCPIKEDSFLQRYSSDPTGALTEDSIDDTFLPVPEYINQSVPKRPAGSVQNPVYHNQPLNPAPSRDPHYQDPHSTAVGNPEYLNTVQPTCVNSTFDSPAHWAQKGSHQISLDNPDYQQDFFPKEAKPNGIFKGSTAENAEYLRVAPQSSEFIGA
Protocol: Reactions proceeded until between 10% to 20% total peptides were phosphorylated at room temperature (25° C.) and were terminated with 35 mM 2,2′,2″,2′″-(ethane-1,2-diyldinitrilo)tetraacetic acid (EDTA). Product was detected using the Caliper mobility shift detection method where the phosphorylated peptide (product) and substrate were electrophoretically separated and measured. Percent activity was plotted against log concentration of compound and points to generate an apparent IC50.

CCOc1ccc(N2CC(CS(C)(=O)=O)C2)c2cnc(Nc3ccnc(N4CC[C@@H](O)[C@@](C)(F)C4)n3)cc12 (single isomer, unassigned) [Compound 78]
pIC50 [1]: 7.52 to 7.70 | pIC50 [2]: ≥ 7.82

[2H]C([2H])([2H])O[C@@H]1CCN(c2nccc(Nc3cc4c(C(C)C)cnc(N5C[C@H](CS(C)(=O)=O)[C@H]5C)c4cn3)n2)C[C@@H]1F (single isomer, unassigned) [Compound 284]
pIC50 [1]: ≥ 8.00 | pIC50 [2]: ≥ 7.82

CO[C@H]1CCN(c2nccc(Nc3cc4c(C(C)C)ccc(N5C[C@H](CS(C)(=O)=O)[C@H]5C)c4cn3)n2)C[C@@H]1O (single isomer, unassigned) [Compound 92, (3S,4S)-1-(4-(5-isopropyl-8-(2R,3S)-2-methyl-3-(methylsulfonylmethyl)azetidin-1-yl)isoquinolin-3-ylamino)pyrimidin-2-yl)-4-methoxypiperidin-3-ol or (3R,4R)-1-(4-(5-isopropyl-8-((2R,3S)-2-methyl-3-(methylsulfonylmethyl)azetidin-1-yl)isoquinolin-3-ylamino)pyrimidin-2-yl)-4-methoxypiperidin-3-ol]
pIC50 [1]: ≥ 8.00 | pIC50 [2]: ≥ 7.82

CN[C@H]1CCN(c2nccc(Nc3cc4c(C(C)C)ccc(N5C[C@H](CS(C)(=O)=O)[C@H]5C)c4cn3)n2)CC1(F)F (single isomer, unassigned) [Compound 309, N-{2-[(4S)-3,3-difluoro-4-(methylamino)piperidin-1-yl]pyrimidin-4-yl}-8-[(2R,3S)-3-(methanesulfonylmethyl)-2-methylazetidin-1-yl]-5-(propan-2-yl)isoquinolin-3-amine or N-{2-[(4R)-3,3-difluoro-4-(methylamino)piperidin-1-yl]pyrimidin-4-yl}-8-[(2R,3S)-3-(methanesulfonylmethyl)-2-methylazetidin-1-yl]-5-(propan-2-yl)isoquinolin-3-amine]
pIC50 [1]: ≥ 8.00 | pIC50 [2]: 7.70 to 7.82

CO[C@@H]1CCN(c2nccc(Nc3cc4c(C(C)C)ncc(N5C[C@H](CS(C)(=O)=O)[C@H]5C)c4cn3)n2)C[C@@H]1O (single isomer, unassigned) [Compound 103, (3S,4R)-1-(4-(5-isopropyl-8-((2R,3S)-2-methyl-3-(methylsulfonylmethyl)azetidin-1-yl)-2,6-naphthyridin-3-ylamino)pyrimidin-2-yl)-4-methoxypiperidin-3-ol or (3R,4S)-1-(4-(5-isopropyl-8-((2R,3S)-2-methyl-3-(methylsulfonylmethyl)azetidin-1-yl)-2,6-naphthyridin-3-ylamino)pyrimidin-2-yl)-4-methoxypiperidin-3-ol]
pIC50 [1]: 7.70 to 8.00 | pIC50 [2]: ≥ 7.82

CC(C)c1ccc(N2CC(CS(C)(=O)=O)C2)c2cnc(Nc3ccnc(N4CC[C@H](O)[C@@H](C)C4)n3)cc12 (single isomer, unassigned) [Compound 18, (3S,4S)-1-[4-({8-[3-(methanesulfonylmethyl)azetidin-1-yl]-5-(propan-2-yl)isoquinolin-3-yl}amino)pyrimidin-2-yl]-3-methylpiperidin-4-ol or (3R,4R)-1-[4-({8-[3-(methanesulfonylmethyl)azetidin-1-yl]-5-(propan-2-yl)isoquinolin-3-yl}amino)pyrimidin-2-yl]-3-methylpiperidin-4-ol]
pIC50 [1]: ≥ 8.00 | pIC50 [2]: ≥ 7.82

CC(C)c1ncc(N2C[C@H](CS(C)(=O)=O)[C@H]2C)c2cnc(Nc3ccnc(N4CC[C@@](C)(O)C(F)(F)C4)n3)cc12 (single isomer, unassigned) [Compound 214, (4R)-3,3-difluoro-1-[4-({8-[(2R,3S)-3-(methanesulfonylmethyl)-2-methylazetidin-1-yl]-5-(propan-2-yl)-2,6-naphthyridin-3-yl}amino)pyrimidin-2-yl]-4-methylpiperidin-4-ol or (4S)-3,3-difluoro-1-[4-({8-[(2R,3S)-3-(methanesulfonylmethyl)-2-methylazetidin-1-yl]-5-(propan-2-yl)-2,6-naphthyridin-3-yl}amino)pyrimidin-2-yl]-4-methylpiperidin-4-ol]
pIC50 [1]: ≥ 8.00 | pIC50 [2]: ≥ 7.82

CC(C)c1ccc(N2C[C@H](CS(C)(=O)=O)[C@H]2C)c2cnc(Nc3ccnc(N4CC[C@](F)(CO)C4)n3)cc12 (single isomer, unassigned) [Compound 270, [(3R)-3-fluoro-1-[4-({8-[(2R,3S)-3-(methanesulfonylmethyl)-2-methylazetidin-1-yl]-5-(propan-2-yl)isoquinolin-3-yl}amino)pyrimidin-2-yl]pyrrolidin-3-yl]methanol or [(3S)-3-fluoro-1-[4-({8-[(2R,3S)-3-(methanesulfonylmethyl)-2-methylazetidin-1-yl]-5-(propan-2-yl)isoquinolin-3-yl}amino)pyrimidin-2-yl]pyrrolidin-3-yl]methanol]
pIC50 [1]: 7.70 to 8.00 | pIC50 [2]: ≥ 7.82

CO[C@]1(C)CN(c2nccc(Nc3cc4c(C(C)C)ccc(N5CC(CS(C)(=O)=O)C5)c4cn3)n2)CC[C@@H]1O (single isomer, unassigned) [Compound 94, (3R,4S)-1-[4-({8-[3-(methanesulfonylmethyl)azetidin-1-yl]-5-(propan-2-yl)isoquinolin-3-yl}amino)pyrimidin-2-yl]-3-methoxy-3-methylpiperidin-4-ol or (3S,4R)-1-[4-({8-[3-(methanesulfonylmethyl)azetidin-1-yl]-5-(propan-2-yl)isoquinolin-3-yl}amino)pyrimidin-2-yl]-3-methoxy-3-methylpiperidin-4-ol]
pIC50 [1]: 7.52 to 7.70 | pIC50 [2]: ≥ 7.82

CO[C@@H]1CCN(c2nccc(Nc3cc4c(C(C)C)cnc(N5CC(CS(C)(=O)=O)C5)c4cn3)n2)C[C@]1(C)F (single isomer, unassigned) [Compound 143]
pIC50 [1]: ≥ 8.00 | pIC50 [2]: ≥ 7.82

CC(C)c1ncc(N2C[C@H](CS(C)(=O)=O)[C@H]2C)c2cnc(Nc3ccnc(N4CC[C@H](OCC(C)(C)O)[C@H](F)C4)n3)cc12 [Compound 257, 1-{[(3R,4S)-3-fluoro-1-[4-({8-[(2R,3S)-3-(methanesulfonylmethyl)-2-methylazetidin-1-yl]-5-(propan-2-yl)-2,6-naphthyridin-3-yl}amino)pyrimidin-2-yl]piperidin-4-yl]oxy}-2-methylpropan-2-ol]
pIC50 [1]: 7.70 to 8.00 | pIC50 [2]: 7.70 to 7.82

Cc1cc(C(C)C)c2cc(Nc3ccnc(N4CC[C@@H](O)[C@@](C)(F)C4)n3)ncc2c1N1CC(CS(C)(=O)=O)C1 (single isomer, unassigned) [Compound 116]
pIC50 [1]: 7.70 to 8.00 | pIC50 [2]: ≥ 7.82

CCS(=O)(=O)CC1CN(c2ccc(C(C)C)c3cc(Nc4ccnc(N5CC[C@](C)(O)[C@H](F)C5)n4)ncc23)C1 (single isomer, unassigned) [Compound 277]
pIC50 [1]: 7.70 to 8.00 | pIC50 [2]: ≥ 7.82

CC(C)c1ccc(N2CC(CS(C)(=O)=O)C2)c2cnc(Nc3ccnc(N4CCCC(O)CC4)n3)cc12 (racemic) [Compound 21, (rac)-1-[4-({8-[3-(methanesulfonylmethyl)azetidin-1-yl]-5-(propan-2-yl)isoquinolin-3-yl}amino)pyrimidin-2-yl]azepan-4-ol]
pIC50 [1]: 7.30 to 7.52 | pIC50 [2]: 7.52 to 7.70
